Assay results from article PMC2730022 (Journal of medicinal chemistry, 2009).

Experiments:
KB cells = test: Protection from growth inhibition by nucleosides and AICA in KB cells; type: cell-based, human
FRα = details: RT16 cells; folic acid = 1; cited from earlier work
FRβ = details: D4 cells; folic acid = 1; cited from earlier work

Structure (SMILES)	Growth in the presence of AICA at higher concentrations (KB cells; AICA 320 μM, compound above 100 nM)	Protection by AICA from toxicity at low and medium concentrations (KB cells; AICA 320 μM, compound ≤ 50 nM)	Protection by adenosine from growth inhibitory effects (KB cells; adenosine 60 μM)	Effect of thymidine on growth inhibitory effects (KB cells; thymidine 10 μM)	Relative binding affinity for FRα (FRα)	Relative binding affinity for FRβ (FRβ)
Nc1nc2sc(CCCCc3ccc(C(=O)N[C@@H](CCC(=O)O)C(=O)O)cc3)cc2c(=O)[nH]1 [Compound 4, N-{4-[4-(2-amino-4-oxo-3,4-dihydrothieno[2,3-d]pyrimidin-6-yl)butyl]benzoyl}-L-glutamic acid]	still significantly inhibited	almost completely protected	completely protective	did not alter		
Nc1nc2c(c(=O)[nH]1)N(C=O)C(CNc1ccc(C(=O)N[C@@H](CCC(=O)O)C(=O)O)cc1)CN2 (stereo partly drawn) [LCV, (6R,S) 5-formyl tetrahydrofolate]					0.25-0.45	< 0.01
